Legend:
M5 muscarinic receptor = target: T1, M5 muscarinic receptor (Homo sapiens, UniProt P08912); test: slowing of [3H]NMS dissociation by cold NMS, CHO membranes; assay type: binding; settings: second site; allosteric; apparent affinity for the receptor-[3H]NMS complex; slope factor nH fitted; pH […] °C, […] NaCl, […] MgCl2
T1 construct: gene CHRM5; expressed in CHO cells, membranes; species printed only for M2 and M3
T1 sequence (P08912 1-532): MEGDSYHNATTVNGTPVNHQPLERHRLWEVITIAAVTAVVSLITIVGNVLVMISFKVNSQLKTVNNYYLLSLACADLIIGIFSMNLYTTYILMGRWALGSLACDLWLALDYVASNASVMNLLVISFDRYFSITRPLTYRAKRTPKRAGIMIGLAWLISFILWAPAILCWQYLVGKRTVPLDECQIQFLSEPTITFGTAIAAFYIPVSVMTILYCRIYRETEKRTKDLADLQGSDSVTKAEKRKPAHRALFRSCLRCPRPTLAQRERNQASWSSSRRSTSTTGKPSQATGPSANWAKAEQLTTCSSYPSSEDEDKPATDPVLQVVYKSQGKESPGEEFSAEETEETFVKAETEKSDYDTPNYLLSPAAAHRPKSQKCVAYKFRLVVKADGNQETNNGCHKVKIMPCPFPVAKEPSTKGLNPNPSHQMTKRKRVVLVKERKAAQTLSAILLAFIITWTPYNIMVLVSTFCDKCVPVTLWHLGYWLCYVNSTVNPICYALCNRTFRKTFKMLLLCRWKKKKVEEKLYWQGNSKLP

[1] = target: T2, M2 muscarinic receptor (M2 wt) (Homo sapiens, UniProt P08172); test: as above; assay type: binding; settings: second site; allosteric; apparent affinity for the receptor-[3H]NMS complex; slope factor nH fitted; pH […] °C, […] NaCl, […] MgCl2
T2 construct: gene CHRM2
T2 sequence (P08172 1-466): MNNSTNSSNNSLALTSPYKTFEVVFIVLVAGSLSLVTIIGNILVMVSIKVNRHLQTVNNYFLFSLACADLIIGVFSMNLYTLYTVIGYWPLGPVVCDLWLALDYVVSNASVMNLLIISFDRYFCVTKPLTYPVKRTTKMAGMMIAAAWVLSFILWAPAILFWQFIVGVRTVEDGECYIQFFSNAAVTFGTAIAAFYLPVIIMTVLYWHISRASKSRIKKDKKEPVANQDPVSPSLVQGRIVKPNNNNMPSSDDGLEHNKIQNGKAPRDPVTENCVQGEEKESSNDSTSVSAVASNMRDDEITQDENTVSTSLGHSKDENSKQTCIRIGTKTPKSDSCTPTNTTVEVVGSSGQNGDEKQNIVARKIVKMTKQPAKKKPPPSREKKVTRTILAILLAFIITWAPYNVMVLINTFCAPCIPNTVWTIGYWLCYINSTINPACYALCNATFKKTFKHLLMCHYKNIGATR
Excerpt: slowing of [3H]NMS dissociation by cold NMS, CHO membranes on M2 muscarinic receptor (M2 wt)

## C[N+]1(C)[C@@H]2C[C@@H](OC(=O)[C@H](CO)c3ccccc3)C[C@H]1[C@@H]1O[C@@H]12 [N-methylscopolamine]
M5 muscarinic receptor
  NMS / pKA: 3.86 ± 0.03 negative logarithm
[1]
  NMS / pKA: 3.62 ± 0.03 negative logarithm

Reference: article PMC5238504 (Scientific Reports, 2017)
